{"source": "patent US20260325473A1", "about": "“N-Beta-Hydroxybutyryl-Amino Acids and Related Compositions and Methods” (The Board of Trustees of the Leland Stanford Junior …, priority 2023, published 2026)", "key": {"CNDP2 [1]": {"target": "T1, CNDP2 (Mus musculus, UniProt Q9D1A2)", "T1 sequence (Q9D1A2 1-475)": "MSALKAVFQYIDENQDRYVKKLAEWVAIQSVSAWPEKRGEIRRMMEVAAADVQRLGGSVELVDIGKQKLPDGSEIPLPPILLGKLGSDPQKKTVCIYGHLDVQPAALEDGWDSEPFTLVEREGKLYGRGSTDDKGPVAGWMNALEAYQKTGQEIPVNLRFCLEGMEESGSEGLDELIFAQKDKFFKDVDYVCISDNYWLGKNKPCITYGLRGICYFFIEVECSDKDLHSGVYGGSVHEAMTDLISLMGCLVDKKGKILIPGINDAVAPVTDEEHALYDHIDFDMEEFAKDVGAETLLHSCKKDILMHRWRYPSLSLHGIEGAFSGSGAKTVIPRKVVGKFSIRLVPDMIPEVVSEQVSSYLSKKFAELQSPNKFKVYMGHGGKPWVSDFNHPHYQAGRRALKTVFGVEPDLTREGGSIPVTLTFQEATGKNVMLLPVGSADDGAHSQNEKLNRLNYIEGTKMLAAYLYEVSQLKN", "assay": "In vitro synthase (condensation) activity, lysates of CNDP2-transfected HEK293T cells", "format": "biochemical", "set-up": "expressed in transfected cells; host or cells: HEK293T (lysate)", "details": "role: substrate; for amino acid selectivity for the BHB-ylation reaction: amino acid 20 mM with BHB 20 mM", "method": "In vitro enzyme activity assays. HEK293T cells were transfected with GFP, CNDP2 or CNDP2-E166A using PolyFect (Qiagen 301105) according to the manufacturer's instructions. The medium was changed one day post-transfection. After an additional 24 h, the cells were harvested in PBS, lysed by sonication and centrifuged (10 min at 15,000 rpm) to remove debris. Supernatant was collected and protein concentrations were adjusted. The in vitro reactions were conducted in Eppendorf tubes with 100 μL of 1 mg/mL protein and 20 mM substrates for keto amino acid synthase activity assays and. Reactions were incubated for 1 h at 37° C. and 20 μl of 1 M HCl were added to acidify the medium and to protonate keto amino acids. Reactions were vortexed and 400 μL of ethyl acetate were added to each reaction. Reactions were vortexed for 30 s to extract keto amino acids into the organic layer and centrifuged at 4° C. for 10 min at 15,000 r.p.m. A total of 300 μl from the top layer was transferred to a new Eppendorf tube and dried down under a stream of nitrogen. The residue was re-suspended in 150 μl of an 2:1:1 mixture of acetonitrile: methanol: water. The mixture was centrifuged at 4° C. for 10 min at 15,000 r.p.m. and the supernatant was transferred to a LC-MS vial."}, "DIO mice": {"system": "DIO mice", "assay": "Chronic administration in DIO mice: body weight and food intake", "format": "in vivo, mouse", "details": "for body weight, head-to-head keto amino acids: 5 days, vs vehicle", "method": "General animal information. Animal experiments were performed according to procedure approved by the Stanford University Administrative Panel on Laboratory Animal Care (APLAC). Mice were maintained in 12-hr light-dark cycles at 22° C. and ~50% relative humidity and fed a standard irradiated rodent chow diet. Where indicated, high-fat diet (D12492, Research Diets 60% kcal from fat) and ketogenic diet (D06040601, Research Diets, 80% kcal fat/15% kcal protein/5% kcal carbohydrate) was used. Male C57BL/6J (stock no. 000664) and male C57BL/6J DIO mice (stock no. 380050) were purchased from Jackson Laboratory. Male C57BL/6NCrl (stock no. 027) mice were purchased from Charles River Laboratory. Whole body CNDP2-KO mice (catalog number, C57BL/6NCrl-Cndp2em1 (IMPC) Mbp/Mmucd, RRID: MMRRC_043492-UCD) were obtained from the Mutant Mouse Regional Resource Center, a NCRR-NIH funded strain repository. For in vivo injection of mice with metabolites, compounds were dissolved in 18:1:1 (by volume) of saline/Kolliphor EL (Sigma Aldrich)/DMSO. Compounds were administered to mice daily via intraperitoneal injections at 5 μl/g body weight at the indicated doses. For all injection experiments, mice were mock injected with the vehicle for 3-5 days until body weights have stabilized. Sample sizes were determined on the basis of previous experiments using similar methodologies. For metabolite administration experiments, mice were randomly assigned to treatment groups. Experimenters were not blinded to groups."}, "CNDP2 [2]": {"target": "T1, CNDP2", "assay": "Tissue enzyme activity, WT or CNDP2-KO mouse tissue lysates", "format": "biochemical", "details": "role: product, BHB 20 mM + amino acid 20 mM; for synthesis activity in WT kidney and gut: 1 h, 37° C", "method": "(§1) Tissue enzyme activity assays. Mouse tissues were mixed with cold PBS and homogenized using a Benchmark BeadBlaster Homogenizer at 4 °C. Protein concentrations were adjusted and the resulting crude was filtered through a 0.45-μm filter to remove insoluble materials. The in vitro reactions were conducted in Eppendorf tubes with 200 μg protein and incubation with the corresponding substrates at 37° C. for 1 hour. After that time, 10 μl of HCl and 400 μl of ethyl acetate were added in the BHB and lactate reactions and the samples were vortexed for 30 s. Reactions were centrifuged at 4° C. for 10 min at 15,000 r.p.m. and total of 300 μl from the top layer was transferred to a new Eppendorf tube and dried down under a stream of nitrogen. The residue was re-suspended in 100 μl of an 2:1:1 mixture of acetonitrile: methanol: water. The mixture was centrifuged at 4° C. for 10 min at 15,000 r.p.m. and the supernatant was transferred to a LC-MS vial. For carnosine reactions, the reactions were not acidified and were directly quenched with 300 μl of an 2:1:1 mixture of acetonitrile: methanol: water after the 1 h incubation and vortexed for 30 s. The mixture was centrifuged at 4° C. for 10 min at 15,000 r.p.m. and the supernatant was transferred to a LC-MS vial."}, "[3]": {"assay": "Human ketone ester supplementation study, plasma metabolites", "format": "in vivo", "details": "ketone ester drink cohort", "method": "(§2) Targeted metabolomics. Targeted measurements were performed using an Agilent 6470 triple quadrupole LC-MS instrument. MS analysis was performed using AJS in negative mode. The AJS source parameters were set as follows: the dry gas temperature was set at 250° C. with a gas flow of 12 l/min and the nebulizer pressure at 25 psi; the sheath gas temperature was set to 300° C. with the sheath gas flow set at 12 l/min; and the capillary voltage was set to 3,500 V. Separation of polar metabolites was performed as described above in the ‘Untargeted measurements of metabolites by LC-MS’ section. Multiple reaction monitoring was performed for the indicated metabolites with the listed dwell times, fragmentor voltage, collision energies, cell accelerator voltages and polarities. Quantification of the endogenous metabolite concentrations were performed by generating a standard curve with known concentrations of each metabolite. Metabolite standards were analyzed alongside the plasma samples using the same targeted triple quadrupole LC/MS method. A calibration standard curve generated from the metabolite standard concentrations and total peak areas were used to calculate the concentrations of each endogenous metabolite. The dilution of the plasma during the sample preparation was also taken into account for the quantification.\nHuman ketone ester supplementation study. Following screening, eligible subjects participated in a randomized, counter-balanced, double-blind, placebo-controlled crossover trial comparing BHB supplementation versus placebo, separated by a minimum of 2 days (ClinicalTrials.gov ID NCT04194450). Pre-menopausal women were tested in the follicular phase (days 3-9). Participants were asked to refrain from structured exercise and alcohol, limit physical activity, and follow a standardized diet (~50% carbohydrate, ~30% fat, ~20% protein) on the day before each trial. After refraining from medication use for 24 hours, participants reported to the Exercise, Metabolism and Inflammation Laboratory at the University of British Columbia-Okanagan in an overnight fasted state. Anthropometric measurements were obtained prior to insertion of an indwelling intravenous catheter into the antecubital vein for repeated blood sampling. Blood was collected into EDTA tubes (BD, 367863) and immediately centrifuged at 2000 rpm for 15 min and the top layer of plasma was aliquoted and frozen at −80 °C. After baseline (0) blood sample collection, the oral BHB supplement or placebo was consumed in liquid form (~30-65 mL). The BHB supplement (H.V.M.N®, USA) in the form of the ketone monoester (R)-3-hydroxybutyl (R)-3-hydroxybutyrate (AG®, TDeltaS, Oxford, UK) contained 0.4 g mL-1 BHB, natural flavoring, and <2% stevia leaf extract. The taste-matched placebo drink contained the same natural flavoring as the ketone supplement, stevia leaf extract, 5 mL of Bittrex stock (0.005 g of denatonium benzoate powder in 40 ml of water) and 1.5 mL of arrowroot stock (2 g of arrowroot powder in 50 ml of water) to match the bitter flavor and viscosity of the ketone monoester. Supplements were dispensed into opaque 80 ml bottles with volume calculated for 0.3 g BHB/kg body weight and labelled either A or B by a third-party researcher. Blinding was maintained until completion of data collection and analyses."}, "[4]": {"assay": "Keto-Med study, plasma metabolites", "format": "in vivo", "details": "human; 4 weeks WFKD vs baseline", "method": "as §2\nKeto-Med study. Keto-Med was a single-site, randomized, crossover, interventional trial comparing 2 metabolically distinct diets (well-formulated ketogenic diet, WFKD; and Mediterranean-plus diet, Med-Plus) among individuals with prediabetes and T2DM. Forty participants aged ≥18 years with prediabetes or T2DM followed the WFKD and the Med-Plus for 12 weeks each, in random order. Participants were randomly assigned into 1 of 2 different diet sequences: WFKD for 12 weeks (phase 1) and then the Med-Plus for 12 weeks (phase 2), or the opposite order. Ad libitum intake was advised, and participants were guided to follow 2 sets of dietary guidelines that shared 3 important similarities (incorporating nonstarchy vegetables and avoiding added sugars and refined grains) and 3 important differences (incorporating compared with avoiding legumes, fruits, and whole, intact grains). During the WFKD phase, participants were counseled to sustain nutritional ketosis by limiting carbohydrates to 20-50 g/day and keeping proteins to ~1.5 g/kg ideal body weight/day, with the remaining kcals coming from fats. Participants were also instructed to consume >3 servings/day of nonstarchy vegetables and maintain adequate mineral and fluid intake for the ketogenic state (sodium, 3-5 g/day; potassium, 3-4 g/day). […]"}, "CNDP2 [5]": {"target": "T1, CNDP2", "assay": "Carnosine hydrolysis (carnosinase activity) in WT or CNDP2-KO mouse tissue lysates", "format": "biochemical", "details": "role: substrate, 10 mM carnosine", "method": "as §1"}}, "data": [{"compound": "CC(CO)C(=O)O", "note": "(centres unmarked) [3-HIB, 3-hydroxisobutyric acid]", "values": [{"measurement": "CNDP2-dependent condensation activity with C4-hydroxycarboxylic acid isomers", "setting": "CNDP2 [1]; with phenylalanine", "result": "not detected"}]}, {"compound": "CC(O)CC(=O)N[C@@H](Cc1c[nH]cn1)C(=O)O", "note": "(some centres unmarked) [BHB-His]", "values": [{"measurement": "food intake and body weight, related metabolites and dipeptides", "setting": "DIO mice; 50 mg/kg IP, 9 days", "result": "failed to reduce food intake or body weight"}]}, {"compound": "CC(C)C[C@H](NC(=O)CC(C)O)C(=O)O", "note": "(some centres unmarked) [BHB-Leu, N-betahydroxybutyryl-leucine]", "values": [{"measurement": "BHB-amino acid synthesis activity in CNDP2-KO kidney and gut", "setting": "CNDP2 [2]", "result": "largely abolished"}, {"measurement": "synthesis activity in WT kidney and gut", "setting": "CNDP2 [2]", "result": "highest BHB-amino acid synthesis activity"}, {"measurement": "body weight, head-to-head keto amino acids", "setting": "DIO mice; 50 mg/kg/day IP", "result": "effective in suppressing body weight"}]}, {"compound": "CSCC[C@H](NC(=O)CC(C)O)C(=O)O", "note": "(some centres unmarked) [BHB-Met, N-betahydroxybutyryl-methionine]", "values": [{"measurement": "BHB-amino acid synthesis activity in CNDP2-KO kidney and gut", "setting": "CNDP2 [2]", "result": "largely abolished"}, {"measurement": "synthesis activity in WT kidney and gut", "setting": "CNDP2 [2]", "result": "highest BHB-amino acid synthesis activity"}, {"measurement": "body weight, head-to-head keto amino acids", "setting": "DIO mice; 50 mg/kg/day IP", "result": "effective in suppressing body weight"}]}, {"compound": "C[C@@H](O)CC(=O)N[C@@H](CCC(N)=O)C(=O)O", "note": "[Keto-Gln]", "values": [{"measurement": "induction by ketone ester drink", "setting": "[3]", "result": "had not been observed to be induced by ketone ester drink"}, {"measurement": "induction of plasma keto amino acids on WFKD", "setting": "[4]", "result": "Robust induction"}]}, {"compound": "C[C@@H](O)CC(=O)N[C@H](C(=O)O)[C@@H](C)O", "note": "[Keto-Thr]", "values": [{"measurement": "induction by ketone ester drink", "setting": "[3]", "result": "had not been observed to be induced by ketone ester drink"}, {"measurement": "induction of plasma keto amino acids on WFKD", "setting": "[4]", "result": "Robust induction"}]}, {"compound": "NCCC(=O)N[C@@H](Cc1cnc[nH]1)C(=O)O", "note": "[carnosine]", "values": [{"measurement": "carnosine hydrolysis across tissues", "setting": "CNDP2 [5]", "result": "highest activity in liver and quadriceps and little activity in the kidney, gut, and brain"}, {"measurement": "carnosinase activity, effect of CNDP2 ablation", "setting": "CNDP2 [5]; CNDP2-KO vs WT", "result": "not sensitive to genetic ablation of CNDP2"}]}, {"compound": "CC[C@H](C)[C@H](N)C(=O)O", "note": "[isoleucine]", "values": [{"measurement": "amino acid selectivity for the BHB-ylation reaction", "setting": "CNDP2 [1]", "result": "CNDP2 catalyzed BHB-ylation"}]}, {"compound": "C[C@H](O)C(=O)O", "note": "[lactate]", "values": [{"measurement": "product formed with lactate and phenylalanine as only substrates", "setting": "CNDP2 [1]; lactate alone with 20 mM phenylalanine", "result": "exclusive production of Lac-Phe"}]}, {"compound": "CC(C)C[C@H](N)C(=O)O", "note": "[leucine]", "values": [{"measurement": "amino acid selectivity for the BHB-ylation reaction", "setting": "CNDP2 [1]", "result": "CNDP2 catalyzed BHB-ylation"}]}, {"compound": "N[C@@H](Cc1ccccc1)C(=O)O", "note": "[phenylalanine, reference compound]", "values": [{"measurement": "amino acid selectivity for the BHB-ylation reaction", "setting": "CNDP2 [1]", "result": "CNDP2 catalyzed BHB-ylation"}, {"measurement": "body weight and food intake, conjugate vs components", "setting": "DIO mice; 50 mg/kg/day IP, BHB or phenylalanine at the same doses, 9 days", "result": "without effect"}]}, {"compound": "CC(C)[C@H](N)C(=O)O", "note": "[valine]", "values": [{"measurement": "amino acid selectivity for the BHB-ylation reaction", "setting": "CNDP2 [1]", "result": "CNDP2 catalyzed BHB-ylation"}]}]}
